Data published in patent US9845330B2, “6-nitro-2,3-dihydroimidazo[2,1-b]oxazoles and a process for the preparation thereof” (priority 2013, dated 2017).
In brackets after ≈: the same amount, converted by molar mass. Read-outs that look alike come from different tables or passages of the source.

Tests used:
M. tuberculosis H37Rv = assay: Combination studies, checkerboard method; assay type: cell-based, Mycobacterium tuberculosis; settings: for MIC with Ethambutol: in combination with Ethambutol; for MIC with INH: in combination with INH; for MIC with Rifampicin: in combination with Rifampicin
Method: The efficacy of compounds IA25 and IIA3 (conc range 4 μg/ml to 0.007 μg/ml) in combination with currently used anti-TB drugs such as rifampicin, isoniazid and ethambutol (each drug tested at conc range 4 μg/ml to […]), wherein the ratio of drugs was ranging between 0.1% to 50%, was determined in vitro using checkerboard method. The checkerboard procedure was performed based on the MIC values by the broth microdilution method. The checkerboard method was performed in 96 well U bottom microtitre plates. 100 microliters of 4× concentration of drug was added to first column of the plate. 50 microliters from first column was transferred to second column and was serially diluted in horizontal manner upto column 10 of the plate. Seven dilutions of 4× concentration of compound were prepared in eppendorfs and fifty microliters of each concentration was added vertically starting from eleventh column of row eight to row second of the plate. First row of the plate served as drug control. 100 microliters of 1:10 diluted of 1 Mc Farland inoculum was added to each well of the plate. Plates were then incubated at 37° C. for 14 days. MIC of drug alone and in presence of compound and vice versa was observed visually. […] The FIC index value for each concentration of two-drug combination was calculated and the minimum value was adopted.

[1] = tested on: macrophage J774 cells line; assay: Cytotoxicity assay (MTT) in macrophage J774 cells; assay type: cell-based; settings: J774 cells, 24 hrs, MTT
Outline: (§1)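 J774 cells seeded at 3×10^4 cells/cm^2 in RPMI with FCS reduced to 5%, then exposed to compounds at 40 μg/ml for 24 hrs. MTT reduction read at 450 nm; percentage cytotoxicity calculated relative to untreated cells.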

[2] = Cytotoxicity assay (MTT) in macrophage J774 cells; assay type: cell-based; settings: mouse, J774 macrophage cells; also called safety index
Outline: as §1

[3] = In vivo pharmacokinetics, oral, mice; set-up: species or system Balb/c mice; Ka: unit not given here; settings: 5 mg/kg oral, plasma
Method: Compounds were administered orally to mice (Balb/c mice) at a dose of 5 mg/kg as a suspension in 0.5% CMC and Tween 80. Samples were derived from plasma at different time points i.e. 0.16 h, 0.5 h, 1 h, 2 h, 4 h, 6 h, 8 h and 24 h, which were then analysed by LC-MS/MS to generate the required pharmacokinetic parameters.

[4] = tested on: M. tuberculosis H37Rv (ATCC 27294); assay: MIC by broth dilution method, M. tuberculosis H37Rv; assay type: cell-based; settings: Mycobacterium tuberculosis
[5] = 504 h, read-out: MIC M. tb H37Rv, broth dilution, 3 weeks
[6] = read-out: MIC value, text summary: sensitive H37Rv as well as MDR and XDR strains of M. tuberculosis
[7] = 504 h, broth dilution, 3 weeks, read-out: MIC M. tb H37Rv
[8] = FIC B, compound in combination with Ethambutol
[9] = FIC B, compound in combination with INH
[10] = FIC B, compound in combination with Rifampicin

Row | Structure (SMILES) | MIC alone (M. tuberculosis H37Rv; checkerboard) [µg/mL] | Cytotoxicity [1] [µg/mL] | selectivity ratio at 24 h, 40 μg/ml [2] | CLB [3] [mL/h/kg] | Ka [3] | Vdarea [3] [L/kg] | t1/2absorption [3] [min] | Cmax ([3]; Balb/c, mouse, po, 5 mg/kg) [nM] | AUC ([3]; Balb/c, mouse) [µM·h] | Tmax ([3]; Balb/c, mouse, read-out: Tmax) [h] | MIC [4, 5] [µg/mL] | MIC [4, 6] [µg/mL] | MIC [4, 7] [µg/mL] | also measured
1 | CC[C@@H](CO)NCCN[C@@H](CC)CO [Ethambutol, reference compound] | 1 | – | – | – | – | – | – | – | – | – | – | – | – | FIC (MIC combination/MIC alone) (M. tuberculosis H37Rv; FIC A, drug in combination with IA25): FIC A = 0.25; FIC (MIC combination/MIC alone) (M. tuberculosis H37Rv; FIC A, drug in combination with IIA3): FIC A = 0.5; MIC with IA25 (M. tuberculosis H37Rv; checkerboard, in combination with IA25): 0.25 µg/mL; MIC with IIA3 (M. tuberculosis H37Rv; checkerboard, in combination with IIA3): 0.5 µg/mL
2 | C[C@]1(COc2ccc(-c3cc(COc4ccc(OC(F)(F)F)cc4)on3)cc2)Cn2cc([N+](=O)[O-])nc2O1 [IC13, (R)-2-{4-[5-(4-trifluoromethoxyphenoxymethyl)isoxazol-3-yl]phenoxymethyl}-2,3-dihydro-2-methyl-6-nitroimidazo[2,1-b]oxazole] | – | >40 | > 10 | 3.3 | 1.21 | 0.13 | 34.2 | 2530 | 33.7 | 2 | 0.12 (≈ 0.225 µM) | < 1 | – | –
3 | C[C@]1(COc2cccc(-n3cc(COc4ccc(OC(F)(F)F)cc4)nn3)c2)Cn2cc([N+](=O)[O-])nc2O1 [IA33] | – | >40 | > 10 | 72 | 0.478 | 0.25 | 86.88 | 595 | 3.95 | 2 | – | – | 0.12 (≈ 0.225 µM) | –
4 | C[C@]1(COc2ccc(NC(=O)Nc3ccc(C(F)(F)F)cc3)cc2)Cn2cc([N+](=O)[O-])nc2O1 [IIA3, (R)-1-(4-trifluoromethylphenyl)-3-{4-(2-methyl-6-nitro-2,3-dihydroimidazo[2,1-b]oxazol-2-yl)methoxyphenyl}urea] | 0.5 | >40 | > 10 | – | – | – | – | – | – | – | – | < 1 | 0.12 (≈ 0.251 µM) | FIC (MIC combination/MIC alone) (M. tuberculosis H37Rv; [8]): FIC B = 0.25; FIC (MIC combination/MIC alone) (M. tuberculosis H37Rv; [9]): FIC B = 0.25; FIC (MIC combination/MIC alone) (M. tuberculosis H37Rv; [10]): FIC B = 0.25; MIC with Ethambutol (M. tuberculosis H37Rv; checkerboard): 0.12 µg/mL; MIC with INH (M. tuberculosis H37Rv; checkerboard): 0.12 µg/mL; MIC with Rifampicin (M. tuberculosis H37Rv; checkerboard): 0.12 µg/mL; FIC Index (FIC A + FIC B) (M. tuberculosis H37Rv; combination with Ethambutol): 0.75; FIC Index (FIC A + FIC B) (M. tuberculosis H37Rv; combination with INH): 0.75; FIC Index (FIC A + FIC B) (M. tuberculosis H37Rv; combination with Rifampicin): 0.5; Observations (M. tuberculosis H37Rv; combination with Rifampicin): synergistic effect
5 | C[C@]1(COc2ccc(N3CCC(Oc4ccc(OC(F)(F)F)cc4)CC3)cc2)Cn2cc([N+](=O)[O-])nc2O1 [OPC-67683, reference compound] | – | – | – | 4.3 | – | 0.76 | 38.4 | – | 9.32 | – | – | – | – | Cmax [3]: 668 nM; Tmax [3]: 2.00 h
6 | C[C@]1(COc2ccc(-c3cc(COc4ccc(F)cc4)on3)cc2)Cn2cc([N+](=O)[O-])nc2O1 [IC14, (R)-2-{4-[5-(4-fluorophenoxymethyl)isoxazol-3-yl]phenoxymethyl}-2,3-dihydro-2-methyl-6-nitroimidazo[2,1-b]oxazole] | – | >40 | > 10 | 202 | 1.056 | 1.54 | 39.4 | 353 | 1.55 | 2 | 0.06 (≈ 0.129 µM) | < 1 | – | –
7 | C[C@]1(COc2ccc(-c3cc(-c4ccccc4)on3)cc2)Cn2cc([N+](=O)[O-])nc2O1 [IC1, (R)-2-{4-[5-phenylisoxazol-3-yl]phenoxymethyl}-2,3-dihydro-2-methyl-6-nitroimidazo[2,1-b]oxazole] | – | >40 | > 10 | – | – | – | – | – | – | – | 0.06 (≈ 0.143 µM) | < 1 | – | –
8 | C[C@]1(COc2ccc(-n3cc(COc4ccc(OC(F)(F)F)cc4)nn3)cc2)Cn2cc([N+](=O)[O-])nc2O1 [IA25] | 0.12 | >40 | > 10 | 7 | 1.71 | 0.36 | 24.6 | 1020 | 14 | 2 | – | – | 0.12 (≈ 0.225 µM) | Cmax [3]: 1020 nM; FIC (MIC combination/MIC alone) (M. tuberculosis H37Rv; [8]): FIC B = 0.5; FIC (MIC combination/MIC alone) (M. tuberculosis H37Rv; [9]): FIC B = 0.25; FIC (MIC combination/MIC alone) (M. tuberculosis H37Rv; [10]): FIC B = 0.5; MIC with Ethambutol (M. tuberculosis H37Rv; checkerboard): 0.06 µg/mL; MIC with INH (M. tuberculosis H37Rv; checkerboard): 0.03 µg/mL; MIC with Rifampicin (M. tuberculosis H37Rv; checkerboard): 0.06 µg/mL; FIC Index (FIC A + FIC B) (M. tuberculosis H37Rv; combination with Ethambutol): 0.75; FIC Index (FIC A + FIC B) (M. tuberculosis H37Rv; combination with INH): 0.5; Observations (M. tuberculosis H37Rv; combination with INH (isoniazid)): synergistic effect; FIC Index (FIC A + FIC B) (M. tuberculosis H37Rv; combination with Rifampicin): 0.75
9 | C[C@]1(COc2ccccc2-n2cc(COc3ccc(F)cc3)nn2)Cn2cc([N+](=O)[O-])nc2O1 [IA40] | – | >40 | > 10 | – | – | – | – | – | – | – | – | – | 4 (≈ 8.58 µM) | –
